This is an account of results in ChEMBL document CHEMBL2407088, “Frenolicins C-G, pyranonaphthoquinones from Streptomyces sp. RM-4-15” (J Nat Prod, 2013).

One may read the IC50 as the concentration at which inhibition is half-maximal. Read a low IC50 as inhibition by little substance.

Some results are limits rather than exact numbers.

In the experiment the test system is A549. The experiment can be described thus: Cytotoxicity against human A549 cells after 2 days by resazurin reduction assay. The settings on record: A549, 48 h. Background: Alamar Blue is a resazurin reagent that responds to reducing activity.
Take `CCC[C@H]1O[C@H](CC(=O)O)C[C@]2(SC[C@H](NC(C)=O)C(=O)O)C(=O)c3cccc(O)c3C(=O)[C@@]12O`: the IC50 is over 80 µM. On to `CCC[C@H]1O[C@H](CC(=O)O)C[C@@]2(O)C(=O)c3cccc(O)c3C(=O)[C@@]12O`, for which the IC50 is over 80 µM. Compound `CCC[C@H]1O[C@H](CC(=O)O)C[C@]2(O)C(=O)c3cccc(O)c3C(=O)[C@@]12O` showed an IC50 of over 80 µM. For the compound `CCC[C@H]1O[C@H](CC(=O)O)C[C@]23O[C@]12C(=O)c1c(O)cccc1[C@@H]3O`, the IC50 is over 80 µM. Next, `CCC[C@H]1O[C@H](CC(=O)OC)[C@H](O)C2=C1C(=O)c1c(O)cccc1C2=O`: 0.35 µM; `CCC[C@H]1O[C@H](CC(=O)O)C[C@@H]2C(=O)c3cccc(O)c3C(=O)[C@]21O`: over 80 µM; `CCC[C@H]1O[C@H](CC(=O)O)CC2=C1C(=O)c1c(O)cccc1C2=O` [DEOXYFRENOLICIN]: 1.07 µM. With `CCC[C@H]1O[C@@H]2CC(=O)O[C@@H]2C2=C1C(=O)c1c(O)cccc1C2=O` [FRENOLICIN B], the IC50 is 0.28 µM. In turn, `CCC[C@H]1O[C@H](CC(=O)O)C[C@]23O[C@]12C(=O)c1c(O)cccc1C3=O` [FRENOLICIN] returned an IC50 of 5.77 µM.
